Test results published in patent US20230210819A1, “USE OF BENZISOSELAZOLE DERIVATIVE FOR ANTI-CORONAVIRUS AND CONTROL OF INTERSTITIAL LUNG DISEASE (ILD) RELATED TO CORONAVIRUS” (SHANGHAI YUANXI MEDICINE CORP., priority 2020, published 2023).

These compounds were tested against 2019-nCoV 3CLpro protein (Severe acute respiratory syndrome coronavirus 2, UniProt P0DTD1) (assay: 2019-nCoV 3CLpro protein activity, fluorescence method with fluorescent polypeptide substrate). Details: not given.
Type: biochemical

Compound | IC50
O=c1c2ccccc2[se]n1CCCn1[se]c2ccccc2c1=O | 115 nM
O=c1c2ccccc2[se]n1CCCCCn1[se]c2ccccc2c1=O | 86.2 nM
O=c1c2ccccc2[se]n1CCCCCCCCCCCCn1[se]c2ccccc2c1=O | 35.6 nM
O=c1c2cc(O)ccc2[se]n1CCCCn1[se]c2ccc(O)cc2c1=O | 41.5 nM
O=c1c2ccccc2[se]n1-c1ccc(S(=O)(=O)n2[se]c3ccccc3c2=O)cc1 | 1240 nM
Cc1[nH]c(/C=C2\C(=O)Nc3c(F)cccc32)c(C)c1C(=O)OCCn1[se]c2ccccc2c1=O | 1640 nM
O=c1c2ccccc2[se]n1CCSSCCn1[se]c2ccccc2c1=O | 1460 nM
O=c1c2ccccc2[se]n1CCCCn1[se]c2ccccc2c1=O [drawing 188] | 111 nM

Same assay, conditions: read-out: IC50 (converted)

Compound | IC50
O=c1c2ccccc2[se]n1CCn1[se]c2ccccc2c1=O | 1230 nM

The compounds below were run on bleomycin-induced mouse lung disease model (assay: Lung and spleen coefficients, 24-h modeling). Details: 90 mg/kg, effect better than that of Dex.
Type: in vivo, C57 mice
Method: Animals of 24-h modeling were randomly divided into 5 groups according to the table below, 3 animals per control group and 5 animals per test group.
Drug administration began 24 h or 7 d after modeling. […] The day of the first administration was counted as D1, the next day as D2, and so forth. The normal groups and Model groups were given 200 µL of normal saline daily by gavage administration.
Method: after being euthanized, the animals were dissected, and the heart, liver, spleen, lung and kidney were weighed.
In this experiment, 105 C57 mice were randomly selected and subjected to organ drip administration of a single dose of bleomycin at 2.5 mg/kg for 24 h or 7 d for induction. After 7 days of induction, 3 model mice were randomly selected and dissected to determine whether the modeling was successful. After modeling, the survival of the mice was recorded. The living states of the mice were observed and their body weight was measured at a fixed time.
A normal control group comprised 3 mice.

Compound | Effect on lung coefficient (in words)
O=c1c2ccccc2[se]n1CCCCn1[se]c2ccccc2c1=O [BS1801] | significantly reduce increases in the lung coefficient
